Laboratory results reported in PubChem BioAssay AID248 (DTP/NCI, 2004).
Values joined by “and” are separate entries in the source; they are usually repeats but may differ in a detail not shown here. Identical values can stand only once. Inconclusive results and toxic doses are left out. Rule as the data show it: active = T/C of 150% or more; inactive = T/C below 125%.

Test system: L1210 leukemia ip in BDF1 mice, survival T/C
Assay: NCI In Vivo Anticancer Drug Screen. Data for tumor model L1210 Leukemia (intraperitoneal) in B6D2F1 (BDF1) mice
Settings: endpoint: mean survival time, higher = longer survival
In short: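 Antitumor effect is assessed in tumor-bearing animals. Survival in the compound arm is compared with a vehicle-dosed control arm and expressed as their quotient.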

[1] = dose: 100.0 mg/kg/injection, schedule: Q01DX001 (ip), vehicle: saline with Tween-80
[2] = dose: 100.0 mg/kg/injection, schedule: Q01DX009 (ip), vehicle: saline
[3] = dose: 200.0 mg/kg/injection, schedule: Q01DX001 (ip), vehicle: carboxymethylcellulose (CMC)
[4] = dose: 100.0 mg/kg/injection, schedule: Q01DX001 (ip), vehicle: saline
[5] = dose: 200.0 mg/kg/injection, schedule: Q01DX001 (ip), vehicle: saline
[6] = dose: 400.0 mg/kg/injection, schedule: Q01DX001 (ip), vehicle: saline
[7] = dose: 100.0 mg/kg/injection, schedule: Q01DX009 (ip), vehicle: Klucel (hydroxypropylcellulose) (HPC)
[8] = dose: 100.0 mg/kg/injection, schedule: Q04DX002 (ip), vehicle: Klucel (hydroxypropylcellulose) (HPC)
[9] = dose: 200.0 mg/kg/injection, schedule: Q01DX009 (ip), vehicle: Klucel (hydroxypropylcellulose) (HPC)
[10] = dose: 200.0 mg/kg/injection, schedule: Q04DX002 (ip), vehicle: Klucel (hydroxypropylcellulose) (HPC)
[11] = dose: 400.0 mg/kg/injection, schedule: Q01DX009 (ip), vehicle: Klucel (hydroxypropylcellulose) (HPC)
[12] = dose: 100.0 mg/kg/injection, schedule: Q04DX003 (ip), vehicle: saline with Tween-80
[13] = dose: 100.0 mg/kg/injection, schedule: Q04DX003 (ip), vehicle: Klucel (hydroxypropylcellulose) (HPC)
[14] = dose: 200.0 mg/kg/injection, schedule: Q04DX003 (ip), vehicle: Klucel (hydroxypropylcellulose) (HPC)
[15] = dose: 400.0 mg/kg/injection, schedule: Q04DX003 (ip), vehicle: Klucel (hydroxypropylcellulose) (HPC)
[16] = dose: 200.0 mg/kg/injection, schedule: Q04DX003 (ip), vehicle: saline with Tween-80
[17] = dose: 400.0 mg/kg/injection, schedule: Q04DX003 (ip), vehicle: saline with Tween-80
[18] = dose: 200.0 mg/kg/injection, schedule: Q04DX002 (ip), vehicle: saline
[19] = dose: 100.0 mg/kg/injection, schedule: Q04DX003 (ip), vehicle: saline
[20] = dose: 200.0 mg/kg/injection, schedule: Q04DX003 (ip), vehicle: saline
[21] = dose: 50.0 mg/kg/injection, schedule: Q01DX001 (ip), vehicle: saline
[22] = dose: 100.0 mg/kg/injection, schedule: Q01DX009 (ip), vehicle: saline with Tween-80

Measured: T/C

O=C(O)c1ccc(CCc2ccc(Cl)c(S(=O)(=O)F)c2)cc1
inactive: [1] 94 % of control | dose: 200.0 mg/kg/injection, schedule: Q01DX001 (ip), vehicle: saline with Tween-80 92 % of control | dose: 400.0 mg/kg/injection, schedule: Q01DX001 (ip), vehicle: saline with Tween-80 91 % of control

O=C1/C(=N/O)CCc2ccccc21
inactive: dose: 50.0 mg/kg/injection, schedule: Q01DX009 (ip), vehicle: saline 102 % of control | dose: 100.0 mg/kg/injection, schedule: Q01DX001 (ip), vehicle: carboxymethylcellulose (CMC) 103 % of control | [2] 103 % of control | [3] 97 % of control

CC(=O)OCC(C(=O)O)(c1ccccc1)c1ccccc1
inactive: dose: 55.0 mg/kg/injection, schedule: Q01DX Z (ip), vehicle: methylcellulose (MC) 94 % of control | dose: 83.0 mg/kg/injection, schedule: Q01DX Z (ip), vehicle: methylcellulose (MC) 98 % of control | dose: 125.0 mg/kg/injection, schedule: Q01DX Z (ip), vehicle: methylcellulose (MC) 93 % of control

N#CC(C#N)=CNc1ccc(S(N)(=O)=O)cc1
inactive: dose: 75.0 mg/kg/injection, schedule: Q01DX001 (ip), vehicle: saline 101 % of control | dose: 150.0 mg/kg/injection, schedule: Q01DX001 (ip), vehicle: saline 95 % of control | dose: 300.0 mg/kg/injection, schedule: Q01DX001 (ip), vehicle: saline 96 % of control

Nc1cn(C2OC(CO)C(O)C2O)c(=O)[nH]c1=O (stereo unspecified)
inactive: [4] 97 % of control | [5] 124 % of control | [6] 100 % of control

CC(=O)NCc1ccc(N)cc1
inactive: dose: 12.5 mg/kg/injection, schedule: Q01DX009 (ip), vehicle: water 114 % of control | dose: 25.0 mg/kg/injection, schedule: Q01DX009 (ip), vehicle: water 112 % of control | dose: 50.0 mg/kg/injection, schedule: Q01DX009 (ip), vehicle: water 114 % of control | dose: 100.0 mg/kg/injection, schedule: Q01DX009 (ip), vehicle: water 120 % of control | dose: 200.0 mg/kg/injection, schedule: Q01DX009 (ip), vehicle: water 116 % of control

CCCCN(C(C)=O)c1ccccc1
inactive: dose: 100.0 mg/kg/injection, schedule: Q01DX001 (ip), vehicle: Klucel (hydroxypropylcellulose) (HPC) 97 % of control | dose: 200.0 mg/kg/injection, schedule: Q01DX001 (ip), vehicle: Klucel (hydroxypropylcellulose) (HPC) 91 % of control | dose: 400.0 mg/kg/injection, schedule: Q01DX001 (ip), vehicle: Klucel (hydroxypropylcellulose) (HPC) 94 % of control

COc1ccc(CC(=S)N2CCOCC2)cc1
inactive: [7] 104 % of control | [8] 98 % of control | [9] 102 % of control | [10] 95 % of control | [11] 96 % of control

COC(=O)C(C)C(C)(O)C(C)(C)C (stereo unspecified)
inactive: [12] 101 % of control

O=C1OCC/C1=C/OCCCCCO/C=C1/CCOC1=O
inactive: [8] 106 % of control | [10] 97 % of control | dose: 400.0 mg/kg/injection, schedule: Q04DX002 (ip), vehicle: Klucel (hydroxypropylcellulose) (HPC) 90 % of control

O=C(Nc1cc([N+](=O)[O-])ccc1O)Nc1cc([N+](=O)[O-])ccc1F
inactive: [13] 100 % of control | [14] 94 % of control | [15] 98 % of control

CCCCCCCCCCCCCCCCCCNC(=S)NC1CCCCC1
inactive: dose: 60.0 mg/kg/injection, schedule: Q01DX015 (ip), vehicle: carboxymethylcellulose (CMC) 98 % of control | dose: 120.0 mg/kg/injection, schedule: Q01DX015 (ip), vehicle: carboxymethylcellulose (CMC) 96 % of control | dose: 240.0 mg/kg/injection, schedule: Q01DX015 (ip), vehicle: carboxymethylcellulose (CMC) 96 % of control | dose: 480.0 mg/kg/injection, schedule: Q01DX015 (ip), vehicle: carboxymethylcellulose (CMC) 98 % of control

CC1(C)OC2COC(OCc3ccccc3)C(OCc3ccccc3)C2O1 (stereo unspecified)
inactive: [12] 97 % of control | [16] 103 % of control | [17] 97 % of control

COc1ccc(CC(C)N)cc1OC (stereo unspecified)
inactive: dose: 100.0 mg/kg/injection, schedule: Q04DX002 (ip), vehicle: saline 105 % of control | [18] 102 % of control

C/C(CCC(=O)O)=N/O
inactive: [2] 101 % of control | [19] 95 % of control | dose: 200.0 mg/kg/injection, schedule: Q01DX009 (ip), vehicle: saline 97 % of control | [20] 100 % of control | dose: 400.0 mg/kg/injection, schedule: Q01DX009 (ip), vehicle: saline 105 % of control | dose: 400.0 mg/kg/injection, schedule: Q04DX003 (ip), vehicle: saline 101 % of control

CC1(C(O)CO)OCCO1 (stereo unspecified)
inactive: dose: 25.0 mg/kg/injection, schedule: Q04DX002 (ip), vehicle: saline 110 % of control | dose: 50.0 mg/kg/injection, schedule: Q04DX002 (ip), vehicle: saline 103 % of control | [18] 107 % of control and 110 % of control | dose: 400.0 mg/kg/injection, schedule: Q04DX002 (ip), vehicle: saline 117 % of control

CCN(CC)CCNCCCS(=O)(=O)c1ccc(NC(C)=O)cc1
inactive: [4] 97 % of control | [5] 97 % of control | [6] 97 % of control

CCOC(=O)N/N=C(/C)OCC
inactive: [19] 102 % of control | [20] 102 % of control

O=C(CCCC(=O)N/N=C/c1cccc(I)c1)N/N=C\c1cccc(I)c1
inactive: [21] 100 % of control | [4] 100 % of control | [5] 100 % of control | [6] 97 % of control

Nc1ncnc2nc(-c3cccc(CNC(=O)c4ccccc4S(=O)(=O)F)c3)[nH]c12
inactive: dose: 25.0 mg/kg/injection, schedule: Q01DX001 (ip), vehicle: saline with Tween-80 93 % of control | dose: 50.0 mg/kg/injection, schedule: Q01DX001 (ip), vehicle: saline with Tween-80 88 % of control | [1] 87 % of control

CCCCNC(C)(C)C(SSSC(c1ccco1)C(C)(C)NCCCC)c1ccco1 (stereo unspecified)
inactive: dose: 50.0 mg/kg/injection, schedule: Q01DX009 (ip), vehicle: saline with Tween-80 91 % of control | [22] 96 % of control | [19] 98 % of control | [20] 100 % of control

COC1=C(NC(C)c2ccccc2)C(=O)C(OC)=C(NC(C)c2ccccc2)C1=O (stereo unspecified)
inactive: dose: 50.0 mg/kg/injection, schedule: Q01DX001 (ip), vehicle: carboxymethylcellulose (CMC) 96 % of control | [3] 89 % of control

CN1NCc2cncnc21
inactive: [21] 97 % of control | [4] 103 % of control | [5] 101 % of control | [6] 103 % of control

CC1(C)N=C(N)N=C(N)N1c1ccc(CCCC(=O)Nc2cccc(S(=O)(=O)F)c2)cc1
inactive: [4] 105 % of control and 89 % of control | [5] 103 % of control

CCOC(=O)CNC(=O)OCCOc1ccc(-c2ccccc2)cc1
inactive: [22] 98 % of control | dose: 200.0 mg/kg/injection, schedule: Q01DX009 (ip), vehicle: saline with Tween-80 97 % of control | dose: 400.0 mg/kg/injection, schedule: Q01DX009 (ip), vehicle: saline with Tween-80 95 % of control

Nc1ccc(NC(=S)Nc2ccccc2)cc1
inactive: [7] 104 % of control | [13] 93 % of control | [9] 101 % of control | [14] 95 % of control | [11] 97 % of control | [15] 92 % of control

O=C1OC(c2ccc([N+](=O)[O-])cc2)=N/C1=C\c1ccc2c(c1)OCO2
inactive: dose: 100.0 mg/kg/injection, schedule: Q04DX002 (ip), vehicle: saline with Tween-80 92 % of control | dose: 400.0 mg/kg/injection, schedule: Q04DX002 (ip), vehicle: saline with Tween-80 87 % of control

O=C(/N=N/C(=O)Oc1ccccc1)Oc1ccccc1
inactive: [4] 98 % of control | [5] 101 % of control | [6] 98 % of control
